# Read-outs that look alike come from different tables or passages of the source.
# Experiments:
# [1] = tested on: G. lamblia WB; assay: Trophozoite viability IC50 determination, Giardia assay (ATPLite); format: cell-based; conditions: Giardia duodenalis, read-out: Cell viability values Mean IC50 (nM) G. lamblia WB
# Procedure: (§1) Giardia cultures: Trophozoites of G. lamblia isolates WB and GS were grown anaerobically in borosilicate glass screw-cap culture tubes (Fisher Scientific) at pH 7.0 in modified TYI-S-33 medium. The medium was supplemented with 10% heat-inactivated bovine serum (Sigma-Aldrich) and 0.05% bovine bile (Sigma-Aldrich). To attain low-oxygen-tension conditions, the tubes were filled to 85 to 90% of their total volume capacity and incubated without shaking at 37° C. Subcultures (2×10^5 trophozoites per tube) were made three times a week. Detachment of trophozoites for inoculation was achieved by chilling the cultures on ice for 20 min. Culturing and detachment of Metronidazole-resistant G. lamblia Assemblage A 713M3 and assemblage B 1279-M1 trophozoites followed the same protocol, except that the growth medium was supplemented with metronidazole gradually increasing the concentration to 10 μM. Amebae cultures: E. histolytica strain HM1:IMSS trophozoites were grown at 37° C. in TYI-S-33 medium supplemented with penicillin (100 U/mL) and streptomycin sulfate (100 μg/mL). Trophozoites were grown anaerobically in borosilicate tubes and subcultures were made 1-2 times a week. Trophozoites were detached for inoculation by chilling the cultures on ice for 20 minutes.
# (§2) Trophozoite viability IC50determination
# (§3) Giardia assays: 10 μL giardia trophozoites in growth medium were plated at a density of 10,000 cells/well in sterile 96-well black clear bottom assay plates. Fumagillin and fumagillol derivatives were 1:3 serially diluted from a 1 μM DMSO stock solution and then 100 μL/well were transferred in duplicate to the assay wells. Metronidazole (control) was 1:3 serially diluted in growth medium from a 100 μM stock solution in DMSO. The assay plates were placed in a BD GasPak™ EZ Container System (BD Diagnostics) to create an anaerobic growth environment. The sealed containers were incubated at 37° C. for 72 hr. Following incubation, 70 μL/well of the ATPLite reagent (PerkinElmer) was added to the assay plates for one-step lysis and ATP level detection. The luminescent signals of the assay plates were measured on an EnSpire 2300 plate reader (PerkinElmer). Concentration response titration points for each compound were fitted to a 4-parameters logistic nonlinear regression model using KaleidaGraph, yielding the IC50value and standard error (SE).
# [2] = tested on: G. lamblia GS; assay: as above; format: cell-based; conditions: read-out: Cell viability values Mean IC50 (nM) G. lamblia GS
# Procedure: as §1, §2, §3
# [3] = tested on: E. histolytica HM1: IMSS; assay: Trophozoite viability IC50 determination, Amebae assay (ATPLite); format: cell-based; conditions: Entamoeba histolytica, read-out: Cell viability values Mean IC50 (nM) E. histolytica HM1: IMSS
# Procedure: as §1, §2, §3
# Amebae assays: The protocol is identical to that described above except that the trophozoites were plated at a density of 5000 cells/well because of their larger size.
# [4] = biological target: T1, Recombinant human MetAP2 (Homo sapiens, UniProt P50579); assay: MetAP2 fluorescence assay; format: biochemical; conditions: recombinant human MetAP2, H-Met-Gly-Pro-AMC substrate
# T1 construct: purchased Bio-Techne/R&D systems
# T1 sequence (P50579 whole entry): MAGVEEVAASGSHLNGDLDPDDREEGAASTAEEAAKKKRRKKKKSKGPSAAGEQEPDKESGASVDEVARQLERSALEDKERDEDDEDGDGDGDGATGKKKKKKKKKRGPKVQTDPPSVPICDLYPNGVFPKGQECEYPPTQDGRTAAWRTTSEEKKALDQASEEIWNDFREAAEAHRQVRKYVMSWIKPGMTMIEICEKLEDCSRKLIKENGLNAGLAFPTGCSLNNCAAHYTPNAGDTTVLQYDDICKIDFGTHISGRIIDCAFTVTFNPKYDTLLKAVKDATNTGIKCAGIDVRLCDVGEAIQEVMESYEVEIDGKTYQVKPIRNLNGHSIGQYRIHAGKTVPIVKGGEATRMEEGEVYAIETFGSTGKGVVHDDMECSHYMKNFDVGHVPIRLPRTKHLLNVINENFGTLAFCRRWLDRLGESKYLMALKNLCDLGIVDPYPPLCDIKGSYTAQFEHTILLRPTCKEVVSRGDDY
# Procedure: MetAP2 Fluorescence Assay
# Recombinant human MetAP2 (Bio-Techne/R&D systems) was diluted to 10 μg/mL in the assay buffer (50 mM HEPES, 0.1 mM CoCl2, 100 mM NaCl, pH 7.5). The substrate, H-Met-Gly-Pro-AMC (Bio-Techne/R&D systems), was diluted to 500 μM with 2 μg/mL of the coupling enzyme, recombinant human dipeptidyl peptidase-4 (Bio-Techne/R&D systems), in assay buffer. 50 μL of 10 μg/mL recombinant human METAP2 were loaded into a flat-bottom black 96-well plate (Greiner Bio), and the reaction was initiated by adding 50 μL of the substrate/dipeptidyl peptidase-4 mixture. The reaction mixture was incubated at room temperature for 10 minutes, and the fluorescence was measured for 5 minutes at excitation and emission wavelengths of 380 nm and 460 nm, respectively, in kinetic mode. For IC50determination, 0.5 μL inhibitor solution was added to the reaction mixture. The reaction rates were used to calculate IC50with KaleidaGraph.
# [5] = trophozoites, 72 hr, anaerobic, ATP level
# [6] = Giardia duodenalis, trophozoites, 72 hr, anaerobic, ATP level
SMILES,IC50 ([1]; 72 h),"IC50 ([2]; Giardia duodenalis, 72 h)",IC50 ([3]; 72 h),IC50 [4],"IC50 [1, 5]","IC50 [2, 6]","IC50 [3, 5]","IC50 [2, 5]"
CO[C@@H]1[C@H](OC(=O)N(C)c2ccc3c(c2)CCOB3O)CC[C@]2(CO2)[C@H]1[C@@]1(C)O[C@@H]1CC=C(C)C [No 15],101 to 1000 nM,101 to 1000 nM,101 to 1000 nM,< 10 nM,,,,
CO[C@@H]1[C@H](OC(=O)Nc2cccc(B(O)O)c2)CC[C@]2(CO2)[C@H]1[C@@]1(C)O[C@@H]1CC=C(C)C [No 18],101 to 1000 nM,10.1 to 100 nM,101 to 1000 nM,< 10 nM,,,,
COC1C(OC(=O)NCc2cc(C#N)cc(B(O)O)c2)CCC2(CO2)C1C1(C)OC1CC=C(C)C (stereo not drawn) [No 36],> 1000 nM,101 to 1000 nM,> 1000 nM,,,,,
CO[C@@H]1[C@H](OC(=O)Nc2ccc3c(c2)CCOB3O)CC[C@]2(CO2)[C@H]1[C@@]1(C)O[C@@H]1CC=C(C)C [No 13],10.1 to 100 nM,< 10 nM,101 to 1000 nM,< 10 nM,,,,
CO[C@@H]1[C@H](OC(=O)NCCCB(O)O)CC[C@]2(CO2)[C@H]1[C@@]1(C)O[C@@H]1CC=C(C)C [No 59],> 1000 nM,> 1000 nM,> 1000 nM,< 10 nM,,,,
COC1C(OC(=O)NCc2cncc(B(O)O)c2)CCC2(CO2)C1C1(C)OC1CC=C(C)C (stereo not drawn) [No 42],> 1000 nM,101 to 1000 nM,> 1000 nM,,,,,
CO[C@@H]1[C@H](OC(=O)Nc2cc(C(=O)O)ccc2B(O)O)CC[C@]2(CO2)[C@H]1[C@@]1(C)O[C@@H]1CC=C(C)C [No 22],,,,< 10 nM,101 to 1000 nM,101 to 1000 nM,101 to 1000 nM,
CO[C@@H]1[C@H](OC(=O)NCc2cccc(B(O)O)c2)CC[C@]2(CO2)[C@H]1[C@@]1(C)O[C@@H]1CC=C(C)C [No 29],101 to 1000 nM,101 to 1000 nM,101 to 1000 nM,< 10 nM,,,,
CO[C@@H]1[C@H](OC(=O)NCc2cc(F)ccc2B(O)O)CC[C@]2(CO2)[C@H]1[C@@]1(C)O[C@@H]1CC=C(C)C [No 31],101 to 1000 nM,101 to 1000 nM,> 1000 nM,< 10 nM,,,,
CO[C@@H]1[C@H](OC(=O)N2CCc3cc(B(O)O)ccc32)CC[C@]2(CO2)[C@H]1[C@@]1(C)O[C@@H]1CC=C(C)C [No 58],> 1000 nM,101 to 1000 nM,> 1000 nM,< 10 nM,,,,
CO[C@@H]1[C@H](OC(=O)N2CCc3cc(B(O)O)cnc3C2)CC[C@]2(CO2)[C@H]1[C@@]1(C)O[C@@H]1CC=C(C)C [No 41],101 to 1000 nM,10.1 to 100 nM,> 1000 nM,< 10 nM,,,,
CO[C@@H]1[C@H](OC(=O)Nc2cccc3c2COB3O)CC[C@]2(CO2)[C@H]1[C@@]1(C)O[C@@H]1CC=C(C)C [No 12],101 to 1000 nM,10.1 to 100 nM,101 to 1000 nM,< 10 nM,,,,
CO[C@@H]1[C@H](OC(=O)Nc2ccc(F)c(F)c2B(O)O)CC[C@]2(CO2)[C@H]1[C@@]1(C)O[C@@H]1CC=C(C)C [No 34],,,,< 10 nM,> 1000 nM,101 to 1000 nM,> 1000 nM,
CO[C@@H]1[C@H](OC(=O)Nc2ccccc2B(O)O)CC[C@]2(CO2)[C@H]1[C@@]1(C)O[C@@H]1CC=C(C)C [No 19],101 to 1000 nM,10.1 to 100 nM,101 to 1000 nM,< 10 nM,,,,
CO[C@@H]1[C@H](OC(=O)N[C@H](CC(C)C)B(O)O)CC[C@]2(CO2)[C@H]1[C@@]1(C)O[C@@H]1CC=C(C)C [No 68],> 1000 nM,101 to 1000 nM,> 1000 nM,< 10 nM,,,,
CO[C@@H]1[C@H](OC(=O)Nc2cc(B(O)O)c3occc3c2)CC[C@]2(CO2)[C@H]1[C@@]1(C)O[C@@H]1CC=C(C)C [No 49],101 to 1000 nM,10.1 to 100 nM,> 1000 nM,< 10 nM,,,,
CO[C@@H]1[C@H](OC(=O)NCCc2ccccc2B(O)O)CC[C@]2(CO2)[C@H]1[C@@]1(C)O[C@@H]1CC=C(C)C [No 39],> 1000 nM,101 to 1000 nM,,< 10 nM,,,,

SMILES,IC50 ([1]; 72 h),"IC50 ([2]; Giardia duodenalis, 72 h)",IC50 ([3]; 72 h),IC50 [4],"IC50 [1, 5]","IC50 [2, 6]","IC50 [3, 5]","IC50 [2, 5]"
CO[C@@H]1[C@H](OC(=O)Nc2cc(B(O)O)cc([N+](=O)[O-])c2)CC[C@]2(CO2)[C@H]1[C@@]1(C)O[C@@H]1CC=C(C)C [No 33],> 1000 nM,101 to 1000 nM,> 1000 nM,< 10 nM,,,,
CO[C@@H]1[C@H](OC(=O)N[C@@H](C)B(O)O)CC[C@]2(CO2)[C@H]1[C@@]1(C)O[C@@H]1CC=C(C)C [No 69],> 1000 nM,10.1 to 100 nM,> 1000 nM,< 10 nM,,,,
COC1C(OC(=O)N2CCOc3c(B(O)O)cncc32)CCC2(CO2)C1C1(C)OC1CC=C(C)C (stereo not drawn) [No 66],> 1000 nM,101 to 1000 nM,> 1000 nM,,,,,
CO[C@@H]1[C@H](OC(=O)Nc2ccc(B(O)O)c(F)c2)CC[C@]2(CO2)[C@H]1[C@@]1(C)O[C@@H]1CC=C(C)C [No 65],101 to 1000 nM,< 10 nM,> 1000 nM,< 10 nM,,,,
COC(=O)c1ccc(B(O)O)c(NC(=O)OC2CCC3(CO3)C(C3(C)OC3CC=C(C)C)C2OC)c1 (stereo not drawn) [No 26],> 1000 nM,101 to 1000 nM,> 1000 nM,,,,,
CO[C@@H]1[C@H](OC(=O)Nc2ccc3c(c2)B(O)OC3C)CC[C@]2(CO2)[C@H]1[C@@]1(C)O[C@@H]1CC=C(C)C (stereo partly drawn) [No 7],,,,< 10 nM,,,,< 10 nM
COc1nsc(CNC(=O)OC2CCC3(CO3)C(C3(C)OC3CC=C(C)C)C2OC)c1B(O)O (stereo not drawn) [No 57],> 1000 nM,101 to 1000 nM,> 1000 nM,,,,,
COC(=O)c1cc(NC(=O)OC2CCC3(CO3)C(C3(C)OC3CC=C(C)C)C2OC)cc(B(O)O)c1 (stereo not drawn) [No 27],101 to 1000 nM,101 to 1000 nM,101 to 1000 nM,,,,,
COC1C(OC(=O)NCCn2cc(B(O)O)cn2)CCC2(CO2)C1C1(C)OC1CC=C(C)C (stereo not drawn) [No 61],> 1000 nM,101 to 1000 nM,> 1000 nM,,,,,
CO[C@@H]1[C@H](OC(=O)N(C)c2ccc3c(c2)COB3O)CC[C@]2(CO2)[C@H]1[C@@]1(C)O[C@@H]1CC=C(C)C [No 5],,,,< 10 nM,,,,
COC1C(OC(=O)NCc2ccc(F)cc2B(O)O)CCC2(CO2)C1C1(C)OC1CC=C(C)C (stereo not drawn) [No 32],> 1000 nM,101 to 1000 nM,> 1000 nM,,,,,
COC1C(OC(=O)N2CCC(n3cc(B(O)O)cn3)CC2)CCC2(CO2)C1C1(C)OC1CC=C(C)C (stereo not drawn) [No 46],> 1000 nM,101 to 1000 nM,> 1000 nM,,,,,
CO[C@@H]1[C@H](OC(=O)Nc2cc3c(cc2F)B(O)OC3(C)C)CC[C@]2(CO2)[C@H]1[C@@]1(C)O[C@@H]1CC=C(C)C [No 4],,,,< 10 nM,,,,< 10 nM
"CO[C@@H]1[C@H](OC(=O)Nc2ccc3c(c2)COB3O)CC[C@]2(CO2)[C@H]1[C@@]1(C)O[C@@H]1CC=C(C)C [No 1, (3R,4S,5S,6R)-5-methoxy-4-((2R,3R)-2-methyl-3-(3-methylbut-2-en-1-yl)oxiran-2-yl)-1-oxaspiro[2.5]octan-6-yl (1-hydroxy-1,3-dihydrobenzo[c][1,2]oxaborol-5-yl)carbamate]",,,,,< 10 nM,< 10 nM,< 10 nM,
COC1C(OC(=O)N2CC(B(O)O)Cn3ccnc32)CCC2(CO2)C1C1(C)OC1CC=C(C)C (stereo not drawn) [No 56],> 1000 nM,101 to 1000 nM,> 1000 nM,,,,,
CO[C@@H]1[C@H](OC(=O)Nc2cc(F)c3c(c2)B(O)OC3)CC[C@]2(CO2)[C@H]1[C@@]1(C)O[C@@H]1CC=C(C)C [No 8],,,,< 10 nM,,,,< 10 nM

# Reference: patent publication US20260166046A1, “Inhibitors of methionine aminopeptidase-2 and methods of preparation and uses thereof” (Primetime Life Sciences LLC, priority 2022, published 2026)
